Assay results as given in patent US10786484B2, “Mono- or di-substituted indole derivatives as dengue viral replication inhibitors” (Janssen Pharmaceuticals, Inc., priority 2015, dated 2020).

Assays:
[1] = system: DENV-2 16681 strain labeled with eGFP; assay: DENV-2 antiviral assay (eGFP fluorescence read-out in Vero cells); type: cell-based, Dengue virus; conditions: DENV-2 16681 eGFP, MOI 0.5, 3 days
Description: The antiviral activity of all the compounds of the invention was tested against the DENV-2 16681 strain which was labeled with enhanced green fluorescent protein (eGPF). The culture medium consists of minimal essential medium supplemented with 2% of heat-inactivated fetal calf serum, 0.04% gentamycin (50 mg/mL) and 2 mM of L-glutamine. Vero cells, obtained from ECACC, were suspended in culture medium and 25 μL was added to 384-well plates (2500 cells/well), which already contain the antiviral compounds. Typically, these plates contain a 5-fold serial dilution of 9 dilution steps of the test compound at 200 times the final concentration in 100% DMSO (200 nL). […] Finally, each plate contains wells which are assigned as virus controls (containing cells and virus in the absence of compound), cell controls (containing cells in the absence of virus and compound) and medium controls (containing medium in the absence of cells, virus and compounds). To the wells assigned as medium control, 25 μL of culture medium was added instead of Vero cells. Once the cells were added to the plates, the plates were incubated for 30 minutes at room temperature to allow the cells to distribute evenly within the wells. Next, the plates were incubated in a fully humidified incubator (37° C., 5% CO2) until the next day. Then, DENV-2 strain 16681, labeled with eGFP, was added at a multiplicity of infection (MOI) of 0.5. Therefore, 15 μL of virus suspension was added to all the wells containing test compound and to the wells assigned as virus control. In parallel, 15 μL of culture medium was added to the medium and cell controls. Next, the plates were incubated for 3 days in a fully humidified incubator (37° C., 5% CO2). At the day of the read out, the eGFP fluorescence was measured using an automated fluorescence microscope at 488 nm (blue laser). Using an in-house LIMS system, inhibition dose response curves for each compound were calculated and the half maximal effective concentration (EC50) was determined. Therefore, the percent inhibition (I) for every test concentration is calculated using the following formula: I=100*([…])/(SVC−SCC); ST, SCC and SVC are the amount of eGFP signal in the test compound, cell control and virus control wells, respectively. The EC50 represents the concentration of a compound at which the virus replication is inhibited with 50%, as measured by a 50% reduction of the eGFP fluorescent intensity compared to the virus control. The EC50 is calculated using linear interpolation (Table 1).

[2] = system: Vero cells; conditions: African green monkey
[3] = system: DENV-1 strain TC974#666; assay: Tetravalent RT-qPCR assay Protocol A, serotype 1; type: cell-based; conditions: Dengue virus, DENV1, 72 h; RT-qPCR serotype 1 TC974#666, Vero cells, day 3
Description: (§1) The antiviral activity of the compounds of the invention was tested against DENV-1 strain TC974#666 (NCPV), DENV-2 strain 16681, DENV-3 strain H87 (NCPV) and DENV-4 strains H241 (NCPV) and EDEN (SG/06K2270DK1/2005; GenBank accession number QG398256) in a RT-qPCR assay. Therefore, Vero cells were infected with either DENV-1, or -2, or -3, or -4 in the presence or absence of test compounds. At day 3 post-infection, the cells were lysed and cell lysates were used to prepare cDNA of both a viral target (the 3′UTR of DENV; Table 2) and a cellular reference gene (β-actin, Table 2). Subsequently, a duplex real time PCR was performed on a Lightcycler480 instrument. The generated Cp value is inversely proportional to the amount of RNA expression of these targets. Inhibition of DENV replication by a test compound results in a shift of Cp's for the 3′UTR gene. On the other hand, if a test compound is toxic to the cells, a similar effect on β-actin expression will be observed. The comparative ΔΔCp method is used to calculate EC50, which is based on the relative gene expression of the target gene (3′UTR) normalized with the cellular housekeeping gene (β-actin). In addition, CC50 values are determined based on the Cp values acquired for the housekeeping gene β-actin.
(§2) The culture medium consisted of minimal essential medium supplemented with 2% of heat-inactivated fetal calf serum, 0.04% gentamycin (50 mg/mL) and 2 mM of L-glutamine. Vero cells, obtained from ECACC, were suspended in culture medium and 75 μL/well was added in 96-well plates (10000 cells/well), which already contain the antiviral compounds. […] In addition, each plate contains wells which are assigned as virus controls (containing cells and virus in the absence of compound) and cell controls (containing cells in the absence of virus and compound). Once the cells were added in the plates, the plates were incubated in a fully humidified incubator (37° C., 5% CO2) until the next day. Dengue viruses serotype-1, 2, 3 and 4 were diluted in order to obtain a Cp of ˜22-24 in the assay. Therefore, 25 μL of virus suspension, was added to all the wells containing test compound and to the wells assigned as virus control. In parallel, 25 μL of culture medium was added to the cell controls. Next, the plates were incubated for 3 days in a fully humidified incubator (37° C., 5% CO2). After 3 days, the supernatant was removed from the wells and the cells were washed twice with ice-cold PBS (−100 μL). The cell pellets within the 96-well plates were stored at −80° C. for at least 1 day. Next, RNA was extracted using the Cells-to-CT™ lysis kit, according to the manufacturer's guideline (Life Technologies). The cell lysates can be stored at −80° C. or immediately used in the reverse transcription step.
(§3) In preparation of the reverse transcription step, mix A (table 3A) was prepared and 7.57 μL/well was dispensed in a 96-well plate. After addition of 5 μL of the cell lysates, a five minute denaturation step at 75° C. was performed (table 3B). Afterwards, 7.43 μL of mix B was added (table 3C) and the reverse transcription step was initiated (table 3D) to generate cDNA.
(§4) Finally, a RT-qPCR mix was prepared, mix C (table 4A), and 22.02 μL/well was dispensed in 96-well LightCycler qPCR plates to which 3 μL of cDNA was added and the qPCR was performed according to the conditions in table 4B on a LightCycler 480.
(§5) Using the LightCycler software and an in-house LIMS system, dose response curves for each compound were calculated and the half maximal effective concentration (EC50) and the half maximal cytotoxic concentration (CC50) were determined (Tables 5-8).

[4] = system: DENV-4 strain H241; assay: Tetravalent RT-qPCR assay Protocol A, serotype 4 H241; type: cell-based; conditions: Dengue virus, DENV4, 72 h; RT-qPCR serotype 4 H241, Vero cells, day 3
Description: as §1, §2, §3, §4, §5

[5] = system: DENV-3 strain H87; assay: Tetravalent RT-qPCR assay Protocol A, serotype 3; type: cell-based; conditions: Dengue virus, DENV3, 72 h; RT-qPCR serotype 3 H87, Vero cells, day 3
Description: as §1, §2, §3, §4, §5

[6] = system: DENV-2 strain 16681; assay: Tetravalent RT-qPCR assay Protocol A, serotype 2; type: cell-based; conditions: Dengue virus, DENV2, 72 h; RT-qPCR serotype 2 16681, Vero cells, day 3
Description: as §1, §2, §3, §4, §5

COc1cc(NC(C(=O)c2c[nH]c3cc(F)ccc23)c2ccc(F)cc2OCCO)cc(S(C)(=O)=O)c1 (single isomer, unassigned) [Compound 1B, 1-(6-fluoro-1H-indol-3-yl)-2-(4-fluoro-2-(2-hydroxyethoxy)phenyl)-2-((3-methoxy-5-(methylsulfonyl)phenyl)amino)ethanone]
EC50 [1]: 85 nM
CC50 [2]: 13000 nM

COc1cc(NC(C(=O)c2c[nH]c3cc(Cl)ccc23)c2ccc(F)cc2OCCO)cc(S(C)(=O)=O)c1 (single isomer, unassigned) [Compound 2B, 1-(6-chloro-1H-indol-3-yl)-2-(4-fluoro-2-(2-hydroxyethoxy)phenyl)-2-((3-methoxy-5-(methylsulfonyl)phenyl)amino)-ethanone]
EC50 [1]: 21 nM
CC50 [2]: 12000 nM

COc1cc(NC(C(=O)c2c[nH]c3c(C)c(F)ccc23)c2ccc(F)cc2OCCO)cc(S(C)(=O)=O)c1 (single isomer, unassigned) [Compound 3B, 2-(4-fluoro-2-(2-hydroxyethoxy)phenyl)-1-(6-fluoro-7-methyl-1H-indol-3-yl)-2-((3-methoxy-5-(methylsulfonyl)phenyl)amino)ethanone]
EC50 [1]: 29 nM
CC50 [2]: 11000 nM

COc1cc(NC(C(=O)c2c[nH]c3c(C)c(Cl)ccc23)c2ccc(F)cc2OCCO)cc(S(C)(=O)=O)c1 (single isomer, unassigned) [Compound 4A, 1-(6-chloro-7-methyl-1H-indol-3-yl)-2-(4-fluoro-2-(2-hydroxyethoxy)phenyl)-2-((3-methoxy-5-(methylsulfonyl)phenyl)amino)ethanone]
EC50 [1]: 11 nM
CC50 [2]: 11000 nM

COc1cc(NC(C(=O)c2c[nH]c3cc(F)c(F)cc23)c2ccc(F)cc2OCCO)cc(S(C)(=O)=O)c1 (single isomer, unassigned) [Compound 5B, 1-(5,6-difluoro-1H-indol-3-yl)-2-(4-fluoro-2-(2-hydroxyethoxy)phenyl)-2-((3-methoxy-5-(methylsulfonyl)phenyl)-amino)ethanone]
EC50 [1]: 16 nM
CC50 [2]: 11000 nM

COc1cc(NC(C(=O)c2c[nH]c3cc(OC)c(C)cc23)c2ccc(F)cc2OCCO)cc(S(C)(=O)=O)c1 (single isomer, unassigned) [Compound 6B, 2-(4-fluoro-2-(2-hydroxyethoxy)phenyl)-2-((3-methoxy-5-(methylsulfonyl)phenyl)amino)-1-(6-methoxy-5-methyl-1H-indol-3-yl)ethanone]
EC50 [1]: 160 nM
CC50 [2]: 13000 nM

COc1cc(NC(C(=O)c2c[nH]c3cc(F)c(C)cc23)c2ccc(F)cc2OCCO)cc(S(C)(=O)=O)c1 (single isomer, unassigned) [Compound 7B, 2-(4-fluoro-2-(2-hydroxyethoxy)phenyl)-1-(6-fluoro-5-methyl-1H-indol-3-yl)-2-((3-methoxy-5-(methylsulfonyl)phenyl)amino)ethanone]
EC50 [1]: 36 nM
CC50 [2]: 8000 nM

COc1cc(NC(C(=O)c2c[nH]c3c(F)cc(C)cc23)c2ccc(F)cc2OCCO)cc(S(C)(=O)=O)c1 (single isomer, unassigned) [Compound 8A, 2-(4-fluoro-2-(2-hydroxyethoxy)phenyl)-1-(7-fluoro-5-methyl-1H-indol-3-yl)-2-((3-methoxy-5-(methylsulfonyl)phenyl)amino)ethanone]
EC50 [3]: 2.3 nM
EC50 [4]: 220 nM
EC50 [1]: 1.1 nM
EC50 [5]: 36 nM
CC50 [2]: 3400 nM
EC50 [6]: 1.4 nM

COc1cc(NC(C(=O)c2c[nH]c3c(F)cc(C)cc23)c2ccc(F)cc2OCCO)cc(S(C)(=O)=O)c1 (single isomer, unassigned) [Compound 8B, 2-(4-fluoro-2-(2-hydroxyethoxy)phenyl)-1-(7-fluoro-5-methyl-1H-indol-3-yl)-2-((3-methoxy-5-(methylsulfonyl)phenyl)amino)ethanone]
EC50 [1]: 48 nM
CC50 [2]: 8200 nM

COc1cc(NC(C(=O)c2c[nH]c3c(C)cc(Cl)cc23)c2ccc(F)cc2OCCO)cc(S(C)(=O)=O)c1 (single isomer, unassigned) [Compound 9B, 1-(5-chloro-7-methyl-1H-indol-3-yl)-2-(4-fluoro-2-(2-hydroxyethoxy)phenyl)-2-((3-methoxy-5-(methylsulfonyl)phenyl)amino)ethanone]
EC50 [1]: 51 nM
CC50 [2]: 13000 nM

COc1cc(NC(C(=O)c2c[nH]c3ccc(OC(F)(F)F)cc23)c2ccc(F)cc2OCCO)cc(S(C)(=O)=O)c1 (single isomer, unassigned) [Compound 10A, 2-(4-fluoro-2-(2-hydroxyethoxy)phenyl)-2-((3-methoxy-5-(methylsulfonyl)phenyl)amino)-1-(5-(trifluoromethoxy)-1H-indol-3-yl)ethanone]
EC50 [1]: 20 nM
CC50 [2]: 12000 nM

COc1cc(NC(C(=O)c2c[nH]c3cc(OC)c(OC(F)(F)F)cc23)c2ccc(F)cc2OCCO)cc(S(C)(=O)=O)c1 (single isomer, unassigned) [Compound 11A, 2-(4-fluoro-2-(2-hydroxyethoxy)phenyl)-2-((3-methoxy-5-(methyl-sulfonyl)phenyl)amino)-1-(6-methoxy-5-(trifluoromethoxy)-1H-indol-3-yl)ethanone]
EC50 [1]: 19 nM
CC50 [2]: 12000 nM

COc1cc(NC(C(=O)c2c[nH]c3c(C)cc(OC(F)(F)F)cc23)c2ccc(F)cc2OCCO)cc(S(C)(=O)=O)c1 (single isomer, unassigned) [Compound 12B, 2-(4-fluoro-2-(2-hydroxyethoxy)phenyl)-2-((3-methoxy-5-(methylsulfonyl)phenyl)amino)-1-(7-methyl-5-(trifluoromethoxy)-1H-indol-3-yl)ethanone]
EC50 [1]: 1.2 nM
CC50 [2]: 9900 nM
